Measured values reported in patent publication US6355799B1, “Substituted benzene compounds, process for their preparation, and herbicidal and defoliant compositions containing them” (ISK Americas Incorporated, priority 1997, dated 2002).

Columns and labels:
Format in all cases: in vivo
[1] = system: redroot pigweed (Amaranthus retroflexus, AMARE); assay: Pre-emerge test, greenhouse herbicide activity screening; details: phytotoxicity rating 0-100, 14 days after application
In short: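 Herbicidal damage is scored 0 (none) to 100 (complete plant death) two weeks after a simulated field spray. Rates span 15–1000 g ai/ha, delivered in acetone at 187 l/ha. For post-emergence treatments, plants have 2–3 leaves and the spray carries 0.25% v/v non-ionic surfactant.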

[2] = system: johnsongrass (Sorghum halepense, SORHA); assay: as above; details: phytotoxicity rating 0-100, 14 days after application
In short: (§1)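 Rating: 0–100 visual injury, 14 DAA. Application: acetone, 187 l/ha, 15–1000 g ai/ha, flat-fan track sprayer with nozzle 40–45 cm above soil or canopy. Post-emerge runs used 0.25% v/v surfactant on 2–3 leaf plants.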

[3] = system: lambsquarters (Chenopodium album, CHEAL); assay: as above; details: phytotoxicity rating 0-100, 14 days after application
In short: as §1

[4] = system: sicklepod (Cassia obtusifolia, CASOB); assay: as above; details: phytotoxicity rating 0-100, 14 days after application
In short: as §1

[5] = system: green foxtail (Setaria viridis, SETVI); assay: as above; details: phytotoxicity rating 0-100, 14 days after application
In short: as §1

[6] = system: common ragweed (Ambrosia artemisizfolia L., AMBEL); assay: as above; details: phytotoxicity rating 0-100, 14 days after application
In short: as §1

[7] = system: barnyardgrass (Echinochloa crus-galli, ECHCG); assay: as above; details: phytotoxicity rating 0-100, 14 days after application
In short: as §1

[8] = system: large crabgrass (Digitaria sanguinalis, DIGSA); assay: as above; details: phytotoxicity rating 0-100, 14 days after application
In short: as §1

[9] = system: velvetleaf (Abutilon theophrasti, ABUTH); assay: as above; details: phytotoxicity rating 0-100, 14 days after application
In short: as §1

[10] = system: ivyleaf morningglory (Ipomoea hederacea, IPOHE); assay: as above; details: phytotoxicity rating 0-100, 14 days after application
In short: as §1

[11] = system: johnsongrass (Sorghum halepense, SORHA); assay: Post-emerge test, greenhouse herbicide activity screening; details: post-emerge, 14 days after application, rating scale 0-100
In short: (§2)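 Compounds in acetone were track-sprayed at 15–1000 g ai/ha: pre-emergence onto soil sown the previous day, then top-watered to incorporate and later bottom-watered; post-emergence onto 2–3 leaf plants with 0.25% v/v surfactant, bottom-watered only. Ratings on a 0–100 phytotoxicity scale were taken at day 14.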

[12] = system: redroot pigweed (Amaranthus retroflexus, AMARE); assay: as above; details: post-emerge, 14 days after application
In short: as §2

[13] = system: lambsquarters (Chenopodium album, CHEAL); assay: as above; details: post-emerge, 14 days after application, rating scale 0-100
In short: as §2

[14] = system: sicklepod (Cassia obtusifolia, CASOB); assay: as above; details: post-emerge, 14 days after application, rating scale 0-100
In short: as §2

[15] = system: green foxtail (Setaria viridis, SETVI); assay: as above; details: post-emerge, 14 days after application, rating scale 0-100
In short: as §2

[16] = system: barnyardgrass (Echinochloa crus-galli, ECHCG); assay: as above; details: post-emerge, 14 days after application, rating scale 0-100
In short: as §2

[17] = system: large crabgrass (Digitaria sanguinalis, DIGSA); assay: as above; details: post-emerge, 14 days after application, rating scale 0-100
In short: as §2

[18] = system: velvetleaf (Abutilon theophrasti, ABUTH); assay: as above; details: post-emerge, 14 days after application, rating scale 0-100
In short: as §2

[19] = system: ivyleaf morningglory (Ipomoea hederacea, IPOHE); assay: as above; details: post-emerge, 14 days after application, rating scale 0-100
In short: as §2

[20] = system: upland rice (Oryza sp., var. Tebonnet, RICE); assay: Pre-emerge test, crop safety; details: crop damage rating 0-100, 14 days after application
In short: (§3)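 Visual ratings on a 0-100 scale (0 no damage, 100 all plants dead) were taken at 14 days after treatment. Rates of 15-1000 g ai/ha in acetone, 187 l/ha, were sprayed onto soil one day after planting (pre-emerge) or onto 2-3 leaf plants with 0.25% v/v surfactant (post-emerge).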

[21] = system: field corn (Zea mays L., var. Dekalb 535, CORN); assay: Pre-emerge test, crop safety; details: crop damage rating 0-100, 14 days after application
In short: as §3

[22] = system: upland rice (Oryza sp., var. Tebonnet, RICE); assay: Post-emerge test, crop safety; details: post-emerge, 14 days after application, rating scale 0-100
In short: (§4)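 Plants grown in 10 cm pots of sandy loam mix received acetone-dissolved compounds through a moving flat-fan nozzle. Doses ranged from 15 to 1000 g ai/ha. Pre-emerge pots were seeded one day earlier, post-emerge pots 8–21 days earlier. Fourteen days on, each pot was graded 0–100 for damage.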

[23] = system: field corn (Zea mays L., var. Dekalb 535, CORN); assay: Post-emerge test, crop safety; details: post-emerge, 14 days after application, rating scale 0-100
In short: as §4

## Cn1c(C(F)(F)F)cc(=O)n(-c2c(F)cc(Cl)c(OCC#N)c2NC(=O)c2ccc3ccccc3c2)c1=O [2-200]
[1]; 63 g ai/ha
  Pre-emerge Herbicidal Activity AMARE: 100
[1]; 250 g ai/ha
  Pre-emerge Herbicidal Activity AMARE: 100
[2]; 63 g ai/ha
  Pre-emerge Herbicidal Activity SORHA: 100
[2]; 250 g ai/ha
  Pre-emerge Herbicidal Activity SORHA: 100
[3]; 63 g ai/ha
  Pre-emerge Herbicidal Activity CHEAL: 100
[3]; 250 g ai/ha
  Pre-emerge Herbicidal Activity CHEAL: 100
[4]; 63 g ai/ha
  Pre-emerge Herbicidal Activity CASOB: 80
[4]; 250 g ai/ha
  Pre-emerge Herbicidal Activity CASOB: 100
[5]; 63 g ai/ha
  Pre-emerge Herbicidal Activity SETVI: 100
[5]; 250 g ai/ha
  Pre-emerge Herbicidal Activity SETVI: 100
[6]; 63 g ai/ha
  Pre-emerge Herbicidal Activity AMBEL: 100
[6]; 250 g ai/ha
  Pre-emerge Herbicidal Activity AMBEL: 100
[7]; 63 g ai/ha
  Pre-emerge Herbicidal Activity ECHCG: 99
[7]; 250 g ai/ha
  Pre-emerge Herbicidal Activity ECHCG: 100
[8]; 63 g ai/ha
  Pre-emerge Herbicidal Activity DIGSA: 100
[8]; 250 g ai/ha
  Pre-emerge Herbicidal Activity DIGSA: 100
[9]; 63 g ai/ha
  Pre-emerge Herbicidal Activity ABUTH: 100
[9]; 250 g ai/ha
  Pre-emerge Herbicidal Activity ABUTH: 100
[10]; 63 g ai/ha
  Pre-emerge Herbicidal Activity IPOHE: 100
[10]; 250 g ai/ha
  Pre-emerge Herbicidal Activity IPOHE: 100
[11]; 63 g ai/ha
  phytotoxicity rating SORHA: 0
[11]; 250 g ai/ha
  phytotoxicity rating SORHA: 0
[12]; 63 g ai/ha, rating scale 0-100 (0 no damage, 100 complete death)
  phytotoxicity rating AMARE: 100
[12]; 250 g ai/ha, rating scale 0-100
  phytotoxicity rating AMARE: 100
[13]; 63 g ai/ha
  phytotoxicity rating CHEAL: 100
[13]; 250 g ai/ha
  phytotoxicity rating CHEAL: 100
[14]; 63 g ai/ha
  phytotoxicity rating CASOB: 100
[14]; 250 g ai/ha
  phytotoxicity rating CASOB: 100
[15]; 63 g ai/ha
  phytotoxicity rating SETVI: 30
[15]; 250 g ai/ha
  phytotoxicity rating SETVI: 50
[16]; 63 g ai/ha
  phytotoxicity rating ECHCG: 0
[16]; 250 g ai/ha
  phytotoxicity rating ECHCG: 0
[17]; 63 g ai/ha
  phytotoxicity rating DIGSA: 0
[17]; 250 g ai/ha
  phytotoxicity rating DIGSA: 0
[18]; 63 g ai/ha
  phytotoxicity rating ABUTH: 100
[18]; 250 g ai/ha
  phytotoxicity rating ABUTH: 100
[19]; 63 g ai/ha
  phytotoxicity rating IPOHE: 100
[19]; 250 g ai/ha
  phytotoxicity rating IPOHE: 100
[20]; 63 g ai/ha
  Pre-emerge Herbicidal Activity RICE: 80
[20]; 250 g ai/ha
  Pre-emerge Herbicidal Activity RICE: 100
[21]; 63 g ai/ha
  Pre-emerge Herbicidal Activity CORN: 75
[21]; 250 g ai/ha
  Pre-emerge Herbicidal Activity CORN: 100
[22]; 63 g ai/ha
  phytotoxicity rating RICE (crop damage): 10
[22]; 250 g ai/ha
  phytotoxicity rating RICE (crop damage): 20
[23]; 63 g ai/ha
  phytotoxicity rating CORN (crop damage): 10
[23]; 250 g ai/ha
  phytotoxicity rating CORN (crop damage): 20
